ChEMBL document CHEMBL5543130, “Design, Synthesis, and In Vivo Evaluation of Isosteviol Derivatives as New SIRT3 Activators with Highly Potent Cardioprotective Effects” (J Med Chem, 2024)
Calls of active or inactive are those of the source. The rule behind the calls is not given here.

Legend:
Mus musculus [1] = assay: Cardioprotective activity against doxorubicin-induced C57BL/6 mouse cardiomyopathy model assessed as increase in fractional shortening at 2.5 mg/kg, ip administered for 7 days by Echocardiography analysis; type: functional; settings: time 7 day
[2] = Water solubility of the compound measured for 24 hrs by HPLC analysis; type: physicochemical
Mus musculus [3] = assay: Cardioprotective activity against doxorubicin-induced C57BL/6 mouse cardiomyopathy model assessed as increase in ejection fraction at 2.5 mg/kg, ip administered for 7 days by Echocardiography analysis; type: functional; settings: time 7 day
Mus musculus [4] = assay: Cardioprotective activity against doxorubicin-induced C57BL/6 mouse cardiomyopathy model assessed as increase in cardiac output at 2.5 mg/kg, ip administered for 7 days by Echocardiography analysis; type: functional; settings: time 7 day
Mus musculus [5] = assay: Cardioprotective activity against doxorubicin-induced C57BL/6 mouse cardiomyopathy model assessed as increase in heart weight to tibia length ratio at 2.5 mg/kg, ip administered for 7 days by Echocardiography analysis; type: functional; settings: time 7 day
[6] = Toxicity in Tg(cmlc2: GFP) Zebrafish assessed as mortality at 450 uM measured at 72 hrs post fertilization; set-up: species or system Danio rerio; settings: in vivo
Danio rerio [7] = assay: Cardioprotective activity against doxorubicin-induced Tg(cmlc2: GFP) Zebrafish assessed as […] at 60 uM measured at 72 hrs post fertilization; type: functional, organism-based
Danio rerio [8] = organism: Danio rerio; assay: Cardioprotective activity against doxorubicin-induced Tg(cmlc2: GFP) Zebrafish assessed as restoration of normal heart structure at 60 uM measured at 72 hrs post fertilization; type: functional, organism-based
Danio rerio [9] = assay: Cardioprotective activity against doxorubicin-induced Zebrafish cardiomyopathy model assessed as survival rate at 40 uM fertilized for 24 hrs followed by compound administration for 72 hrs and measured at 96 hrs post fertilization by inverted fluorescence microscopic analysis; type: functional
Danio rerio [10] = assay: Cardioprotective activity against doxorubicin-induced Zebrafish cardiomyopathy model assessed as survival rate at 60 uM fertilized for 24 hrs followed by compound administration for 72 hrs and measured at 96 hrs post fertilization by inverted fluorescence microscopic analysis; type: functional

| SMILES | Activity (Mus musculus [1]) | solubility at 24 h [2] | Activity (Mus musculus [3]) | Activity (Mus musculus [4]) | Ratio (Mus musculus [5]) | Activity [6] | Activity (Danio rerio [7]) | Activity (Danio rerio [8]) | survival at 40 µM (Danio rerio [9]) | survival at 60 µM (Danio rerio [10]) |
| --- | --- | --- | --- | --- | --- | --- | --- | --- | --- | --- |
| C[C@@]12CC[C@@H]3[C@@](CC[C@H]4[C@@]3(C)CCC[C@@]4(C)C(=O)N3CCN(C(=O)c4ccccc4C(=O)[O-])CC3)(CC1=O)C2.[Na+] | 31.3% | 54 mg/mL | 59.8% | 10% | 6.3 mg/mm | Non-Toxic |  |  |  |  |
| C[C@@H]1CC(=O)NN=C1c1ccc(NN=C(C#N)C#N)cc1 [LEVOSIMENDAN] |  |  |  |  |  |  | Active | Active | 75% | 84% |
